Data as given in patent publication US10899738B2 (THE REGENTS OF THE UNIVERSITY OF MICHIGAN, priority 2016, dated 2021).
pIC50: −log10 of the molar value.

Biological target: menin protein (Homo sapiens (Human), UniProt O00255)
Assay: biochemical
Assay type: binding
Settings: FP competitive binding; menin protein 4 nM, FAM-MM2 probe 2 nM; read-out: Menin Binding Affinity IC50
Procedure, shortened: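 Competitive fluorescence polarization assay using FAM-labelled MLL1 peptide probe FAM-MM2 (2 nM final) preincubated with menin (4 nM final) in PBS with 0.02% bovine γ-globulin, 4% DMSO and 0.01% Triton X-100. Compounds were added and incubated 30 min at room temperature. IC50 came from nonlinear regression of competition curves, with Ki also derived.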

Chain of menin protein (O00255 whole entry): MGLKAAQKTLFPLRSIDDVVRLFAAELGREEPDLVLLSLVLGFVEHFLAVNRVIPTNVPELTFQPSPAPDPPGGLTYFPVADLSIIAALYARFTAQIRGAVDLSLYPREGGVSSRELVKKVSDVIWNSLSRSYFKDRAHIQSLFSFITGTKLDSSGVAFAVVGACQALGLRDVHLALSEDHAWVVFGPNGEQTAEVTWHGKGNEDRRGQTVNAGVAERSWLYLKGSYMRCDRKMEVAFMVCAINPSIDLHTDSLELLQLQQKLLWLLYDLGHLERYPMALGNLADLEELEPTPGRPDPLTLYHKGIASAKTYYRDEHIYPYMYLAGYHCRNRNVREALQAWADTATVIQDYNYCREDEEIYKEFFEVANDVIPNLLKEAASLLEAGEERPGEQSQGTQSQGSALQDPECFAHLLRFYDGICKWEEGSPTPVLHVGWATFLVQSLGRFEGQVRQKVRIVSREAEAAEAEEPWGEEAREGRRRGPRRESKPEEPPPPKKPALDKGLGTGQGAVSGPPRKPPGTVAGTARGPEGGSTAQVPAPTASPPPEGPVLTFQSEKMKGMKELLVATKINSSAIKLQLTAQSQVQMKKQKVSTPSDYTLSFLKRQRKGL

| SMILES | pIC50 |
| --- | --- |
| CN(C)C(=O)N[C@@H]1CCC[C@H]1C(Cn1ccnc1)(c1ccccc1)C1CCN(CC2CN(c3ccc(S(=O)(=O)c4cnn(C)c4)cc3)C2)CC1 (mixture of isomers) [compound 377, rac-3-((1R,2S)-2-(2-(1H-imidazol-1-yl)-1-(1-((1-(4-((1-methyl-1H-pyrazol-4-yl)sulfonyl)phenyl)azetidin-3-yl)methyl)piperidin-4-yl)-1-phenylethyl)cyclopentyl)-1,1-dimethylurea] | 5.95 |
| CN1Cc2ccccc2C(C2CCCC2)(C2CCN(CC3CN(c4ccc(S(C)(=O)=O)cc4)C3)CC2)C1 (centres unmarked) [compound 64, 4-cyclopentyl-2-methyl-4-(1-((1-(4-(methylsulfonyl)phenyl)azetidin-3-yl)methyl)piperidin-4-yl)-1,2,3,4-tetrahydroisoquinoline] | 7.21 |
| N#Cc1ccc(OCCCN2CCC(C3(C4CCC4)NCCc4ccccc43)CC2)cc1 (centres unmarked) [compound 247, 4-(3-(4-(1-cyclobutyl-1,2,3,4-tetrahydroisoquinolin-1-yl)piperidin-1-yl)propoxy)benzonitrile] | 5.96 |
| COC(=O)N[C@H]1CCC[C@@H]1C(C#N)(c1ccccc1)C1CCN(CCC#Cc2ccc(S(=O)(=O)C(F)(F)F)cc2)CC1 (mixture of isomers) [compound 405, methyl rac-((1S,2R)-2-(cyano(phenyl)(1-(4-(4-((trifluoromethyl)sulfonyl)phenyl)but-3-yn-1-yl)piperidin-4-yl)methyl)cyclopentyl)carbamate] | 6.76 |
| CCC(CC)C(=O)N1CCCCC1C1(C2CCN(CCCOc3ccc(C#N)cc3)CC2)CN(C)Cc2ccccc21 (centres unmarked) [compound 301, 4-(3-(4-(4-(1-(2-ethylbutanoyl)piperidin-2-yl)-2-methyl-1,2,3,4-tetrahydroisoquinolin-4-yl)piperidin-1-yl)propoxy)benzonitrile] | 4.46 |
| CNC(=O)C[C@H]1CCC[C@@H]1C(C#N)(c1ccccc1)C1CCN(CC2CN(c3ccc(S(=O)(=O)c4ccncc4)cc3)C2)CC1 (mixture of isomers) [compound 340, rac-2-((1R,2S)-2-(cyano(phenyl)(1-((1-(4-(pyridin-4-ylsulfonyl)phenyl)azetidin-3-yl)methyl)piperidin-4-yl)methyl)cyclopentyl)-N-methylacetamide] | 5.54 |
| C[C@H](NC(=O)O[C@H]1CCC[C@@H]1[C@](C#N)(c1ccccc1)C1CCN(CC2CN(c3ccc(S(=O)(=O)c4ccncc4)cc3)C2)CC1)c1ccccc1 [compound 217, (1S,2R)-2-((S)-cyano(phenyl)(1-((1-(4-(pyridin-4-ylsulfonyl)phenyl)azetidin-3-yl)methyl)piperidin-4-yl)methyl)cyclopentyl ((S)-1-phenylethyl)carbamate] | 4.94 |
| CC(=O)N[C@@H]1CCC[C@H]1C(C#N)(c1ccccc1)C1CCN(CC2CN(c3ccc(C#N)cc3)C2)CC1 (mixture of isomers) [compound 383, rac-N-((1R,2S)-2-(cyano(1-((1-(4-cyanophenyl)azetidin-3-yl)methyl)piperidin-4-yl)(phenyl)methyl)cyclopentyl)acetamide] | 5.60 |
| CNC(=O)O[C@@H]1CCC[C@H]1C(C#N)(c1ccccc1)C1CCN(CC2CN(c3ccc(S(=O)(=O)C4CC4)cc3)C2)CC1 (mixture of isomers) [compound 227, rac-(1R,2S)-2-(cyano(1-((1-(4-(cyclopropylsulfonyl)phenyl)azetidin-3-yl)methyl)piperidin-4-yl)(phenyl)methyl)cyclopentyl methylcarbamate] | 6.30 |
| N#Cc1ccc(NCCCN2CCC(C3(C4CCCC4)NCCc4ccccc43)CC2)cc1 (centres unmarked) [compound 58, 4-((3-(4-(1-cyclopentyl-1,2,3,4-tetrahydroisoquinolin-1-yl)piperidin-1-yl)propyl)amino)benzonitrile] | 6.62 |
| CC(=O)O[C@@H]1CCC[C@H]1C(C#N)(c1ccccc1)C1CCN(CC2CN(c3ccc(S(=O)(=O)c4ccncc4)cc3)C2)CC1 (mixture of isomers) [compound 207, rac-(1R,2S)-2-(cyano(phenyl)(1-((1-(4-(pyridin-4-ylsulfonyl)phenyl)azetidin-3-yl)methyl)piperidin-4-yl)methyl)cyclopentyl acetate] | 5.55 |
| CCC(CC)C1(C2CCN(CCCOc3ccc(C#N)cc3)CC2)NCCc2ccccc21 (centres unmarked) [compound 249, 4-(3-(4-(1-(pentan-3-yl)-1,2,3,4-tetrahydroisoquinolin-1-yl)piperidin-1-yl)propoxy)benzonitrile] | 5.72 |
| CO[C@@H]1CCC[C@H]1C1(C2CCN(CCCOc3ccc(C#N)cc3)CC2)CN(C)Cc2ccccc21 (mixture of isomers) [compound 326, rac-4-(3-(4-(4-((1S,2R)-2-methoxycyclopentyl)-2-methyl-1,2,3,4-tetrahydroisoquinolin-4-yl)piperidin-1-yl)propoxy)benzonitrile] | 5.57 |
| CC(=O)N[C@@H]1CCC[C@H]1C(C#N)(c1ccccc1)C1CCN(CC2CN(c3ccc(S(=O)(=O)c4ccncc4)cc3)C2)CC1 (mixture of isomers) [compound 264, rac-N-((1R,2S)-2-(cyano(phenyl)(1-((1-(4-(pyridin-4-ylsulfonyl)phenyl)azetidin-3-yl)methyl)piperidin-4-yl)methyl)cyclopentyl) acetamide] | 6.26 |
| CCNC(=O)[C@H]1CCC[C@@H]1C(C#N)(c1ccccc1)C1CCN(CC2CN(c3ccc(S(=O)(=O)C4CC4)cc3)C2)CC1 (mixture of isomers) [compound 335, rac-(1S,2S)-2-(cyano(1-((1-(4-(cyclopropylsulfonyl)phenyl)azetidin-3-yl)methyl)piperidin-4-yl)(phenyl)methyl)-N-ethylcyclopentane-1-carboxamide] | 5.25 |
| CC(C)C(=O)O[C@@H]1CCC[C@H]1C(C#N)(c1ccccc1)C1CCN(CC2CN(c3ccc(S(=O)(=O)c4ccncc4)cc3)C2)CC1 (mixture of isomers) [compound 194, rac-(1R,2S)-2-(cyano(phenyl)(1-((1-(4-(pyridin-4-ylsulfonyl)phenyl)azetidin-3-yl)methyl)piperidin-4-yl)methyl)cyclopentyl isobutyrate] | 3.78 |
| N#Cc1ccc(OCCCN2CCC(C3NCCc4ccccc43)CC2)cc1 (centres unmarked) [compound 305, 4-(3-(4-(1,2,3,4-tetrahydroisoquinolin-1-yl)piperidin-1-yl)propoxy)benzonitrile] | 4.38 |
| C=CCC1(C2CCN(CCCOc3ccc(C#N)cc3)CC2)NCCc2ccccc21 (centres unmarked) [compound 293, 4-(3-(4-(1-allyl-1,2,3,4-tetrahydroisoquinolin-1-yl)piperidin-1-yl)propoxy)benzonitrile] | 5.55 |
| N#CC(c1ccccc1)(C1CCN(CC2CN(c3ccc(S(=O)(=O)c4ccncc4)cc3)C2)CC1)[C@@H]1CCC[C@H]1OC(N)=O (mixture of isomers) [compound 212, rac-(1R,2S)-2-(cyano(phenyl)(1-((1-(4-(pyridin-4-ylsulfonyl)phenyl)azetidin-3-yl)methyl)piperidin-4-yl)methyl)cyclopentyl carbamate] | 6.34 |
| N#Cc1ccc(OCCCN2CCC(C3(C4CCCC4)NCCc4ccc(F)cc43)CC2)cc1 (centres unmarked) [compound 22, 4-(3-(4-(1-cyclopentyl-7-fluoro-1,2,3,4-tetrahydroisoquinolin-1-yl)piperidin-1-yl)propoxy)benzonitrile] | 6.33 |
| CNC(=O)N[C@@H]1CCC[C@H]1C(C#N)(c1ccccc1)C1CCN(CCCOc2ccc(C#N)cc2)CC1 (mixture of isomers) [compound 318, rac-1-((1R,2S)-2-(cyano(1-(3-(4-cyanophenoxy)propyl)piperidin-4-yl)(phenyl)methyl)cyclopentyl)-3-methylurea] | 4.68 |
| N#Cc1ccc(-c2ccc(N3CCC(C4(C5CCCC5)NCCc5ccccc54)CC3)cc2)cc1 (centres unmarked) [compound 77, 4′-(4-(1-cyclopentyl-1,2,3,4-tetrahydroisoquinolin-1-yl)piperidin-1-yl)-[1,1′-biphenyl]-4-carbonitrile] | 2.59 |
| N#Cc1cc2cc(C(=O)N[C@H]3CC[C@H](C4(C5CCCC5)NCCc5ccccc54)CC3)ccc2[nH]1 (some centres unmarked) [compound 80, 2-cyano-N-((1r,4r)-4-(1-cyclopentyl-1,2,3,4-tetrahydroisoquinolin-1-yl)cyclohexyl)-1H-indole-5-carboxamide] | 4.94 |
| N#Cc1ccc(N2CC(CN3CCC(C4(C5CCCC5)CN(C5COC5)Cc5ccccc54)CC3)C2)cc1 (centres unmarked) [compound 44, 4-(3-((4-(4-cyclopentyl-2-(oxetan-3-yl)-1,2,3,4-tetrahydroisoquinolin-4-yl)piperidin-1-yl)methyl)azetidin-1-yl)benzonitrile] | 6.04 |
| CCC1CCCC1C(C#N)(c1ccccc1)C1CCN(CC2CN(c3ccc(S(=O)(=O)c4ccncc4)cc3)C2)CC1 (centres unmarked) [compound 338, 2-(2-ethylcyclopentyl)-2-phenyl-2-(1-((1-(4-(pyridin-4-ylsulfonyl)phenyl)azetidin-3-yl)methyl)piperidin-4-yl)acetonitrile] | 4.99 |
| N#Cc1ccc(OCCCN2CCC(C(C#N)(c3ccccc3)C3CCCC3)CC2)cc1 (centres unmarked) [compound 20, 4-(3-(4-(cyano(cyclopentyl)(phenyl)methyl)piperidin-1-yl)propoxy)benzonitrile] | 5.89 |
| Cc1cc(C#N)ccc1N1CC(CN2CCC(C3(C4CCCC4)NCCc4ccccc43)CC2)C1 (centres unmarked) [compound 138, 4-(3-((4-(1-cyclopentyl-1,2,3,4-tetrahydroisoquinolin-1-yl)piperidin-1-yl)methyl)azetidin-1-yl)-3-methylbenzonitrile] | 7.00 |
| CO[C@@H]1CCC[C@H]1C1(C2CCN(CCCOc3ccc(C(=O)O)cc3)CC2)CNCc2ccccc21 (mixture of isomers) [compound 327, rac-4-(3-(4-(4-((1S,2R)-2-methoxycyclopentyl)-1,2,3,4-tetrahydroisoquinolin-4-yl)piperidin-1-yl)propoxy)benzoic acid] | 3.31 |
| CN1Cc2ccccc2C(c2ccccn2)(C2CCN(CC3CN(c4ccc(S(C)(=O)=O)cc4)C3)CC2)C1 (centres unmarked) [compound 170, 2-methyl-4-(1-((1-(4-(methylsulfonyl)phenyl)azetidin-3-yl)methyl)piperidin-4-yl)-4-(pyridin-2-yl)-1,2,3,4-tetrahydroisoquinoline] | 4.32 |
